# Assay results from patent US20060058392A1, “Use of a rhein in a therapeutic treatment requiring a rise in the rate of heme oxygenase” (priority 2002, published 2006).
# What was measured:
# [1] = tested on: patients presenting with osteoarthritis; conditions: cited from earlier work; for antalgic and anti-inflammatory symptomatic activity: acute phase of osteoarthritis, Nguyen et al. 1994
# [2] = tested on: TO mice implanted with rat tissue; assay: Induced granuloma and tissue degradation of rat tissue implanted subcutaneously in mice; assay type: in vivo, mouse; conditions: for integrity of the implanted/grafted tissue / tissular reaction (granuloma, inflammatory cells, exudate) caused by the transplant of rat tissue to the mouse: overall statement
# Experimental: The effect of diacerein, rhein and their salts or esters on the intensity of the tissular reaction and the destruction and rejection phenomena was assessed following a tissue implantation, using the model of induced granuloma and tissue degradation of rat tissue in mice (Bottomley K M and al., Osteoarthritis and Cartilage (1998) 6: 19-23.).
# The method comprises the following steps: • The isolated tissue (Wistar rat, male) are placed in sterile cotton and implanted subcutaneously in TO mice; • the subcutaneous implants are kept for a period of 2 weeks; • daily treatment of the animals with diacerein, rhein, their salts or esters, as well as with the controls and comparatives, at the optimum doses indicated; • collection of the implanted tissue and of the reactive granuloma; • measurement of the degree of tissular inflammatory response (assessment of the dimensions of the granuloma, of the number of inflammatory cells in the exudate and of the volume of the exudate), and of the rejection (assessment of the degradation of the implanted tissue).
# heme oxygenase-1 (HO-1) [3] = assay: Western blot of HO-1 expression in mice macrophages; assay type: cell-based; conditions: 10^−5 M, analysed at 15, 30, 60 min (diacerein, FIG. 7b) or 0-120 min and 18 h (rhein, FIG. 7c)
# Experimental: FIGS. 7b and 7c are also <<Western blots >> of cells (model: mice macrophages) cultivated with and without diacerein (FIG. 7b: columns “Dε” and “Cε” respectively) or rhein (FIG. 7c) at a concentration of 10^−5 M, and later analysed at 15, 30 and 60 minutes (FIG. 7b) and at 0, 15, 30, 60, 120 minutes as well as 18 hours (FIG. 7c). The identity of the protein of interest, HO-1, was confirmed as regards its molecular mass (first column on the left in the Figures).
# human chondrocytes = assay: Human chondrocyte culture treated with erythrocyte lysate (cellular viability, apoptosis); assay type: cell-based; conditions: lysate of 3×10^6 erythrocytes, 100 μM
# Experimental: The whole cellular culture was measured by its cellular viability (live cells compared to the control), the presence of apoptosis (nuclear fragmentation; in number and percentage compared to the control), and the incorporation of radioactive sulphate (^35SO4; in coups per minutes, CPM).
# As was already observed with the femoral head cartilage, the erythrocytes, erythrocyte lysate and haemoglobin also cause cellular destruction in this model. However, stress-induced HSPs prevent this cellular destruction and preserve the cells, as shown on FIG. 6 which counts the live cells (model: human chondrocytes under thermal stress (1 h at 43° C.) and treated with erythrocyte lysate (3×10^6); sem=standard error).
# [4] = cited from earlier work
# heme oxygenase-1 (HO-1) [5] = assay: Western blot of HO-1 expression in rat femoral head cartilage culture; assay type: cell-based; conditions: diacerein 10 μM and 100 μM, compared to control and reference solution, FIG. 7a
SMILES,antalgic and anti-inflammatory symptomatic activity [1],progression of osteoarthritis ([1]; patients with osteoarthritis),safety of use ([1]; patients with osteoarthritis),"tissular reaction (formation of the reactive granuloma) ([2]; 5, 15 and 50 mg/kg per oral route, daily, 2 weeks, p<0.01 vs control, FIG. 10)","integrity of the grafted tissue: content in collagen ([2]; 5, 15 and 50 mg/kg per oral route, p<0.05 / p<0.01 vs control, FIG. 12 left)","integrity of the grafted tissue: content in glycosamino-glycan (GAG) ([2]; 5, 15 and 50 mg/kg per oral route, p<0.05 / p<0.01 vs control, FIG. 12 right)","tissular reaction: number of inflammatory cells ([2]; 5, 15 and 50 mg/kg per oral route, p<0.05 vs control, FIG. 11 left)","tissular reaction: volume of the exudate ([2]; 5, 15 and 50 mg/kg per oral route, p<0.05 vs control, FIG. 11 right)",integrity of the implanted/grafted tissue [2],"tissular reaction (granuloma, inflammatory cells, exudate) caused by the transplant of rat tissue to the mouse [2]",expression of HO-1 (heme oxygenase-1 (HO-1) [3]),cellular destruction caused by the erythrocyte lysate (live cells) (human chondrocytes; FIG. 8),solubility in alcohols [4],solubility in water [4],expression of HO-1 (heme oxygenase-1 (HO-1) [5]),apoptosis caused by the erythrocyte lysate (human chondrocytes; FIG. 9)
CC(=O)Oc1cccc2c1C(=O)c1c(OC(C)=O)cc(C(=O)O)cc1C2=O [diacerein],moderate,slows down the progression of osteoarthritis,good safety of use,dose-dependent reduction,preserves the integrity of the grafted tissue,preserves the integrity of the grafted tissue,reduced in a dose-dependent manner,reduced in a dose-dependent manner,preserve the integrity of the implanted tissue,reduce the tissular reaction,time-dependant increase,prevents the cellular destruction,very slightly soluble,very slightly soluble,dose-dependent increase,
O=C(O)c1cc(O)c2c(c1)C(=O)c1cccc(O)c1C2=O [rhein],moderate,,,,,,,,preserve the integrity of the implanted tissue,reduce the tissular reaction,time-dependant increase,,very slightly soluble,very slightly soluble,,prevents the apoptosis
